US8420675B2, “Aminotetrahydroindazoloacetic acids” (Hoffmann-La Roche Inc., priority 2008, dated 2013)

Biological target: T1, human CRTH2 (Homo sapiens, UniProt Q9Y5Y4)
T1 construct: expressed in transfected cells
T1 sequence (Q9Y5Y4 1-395): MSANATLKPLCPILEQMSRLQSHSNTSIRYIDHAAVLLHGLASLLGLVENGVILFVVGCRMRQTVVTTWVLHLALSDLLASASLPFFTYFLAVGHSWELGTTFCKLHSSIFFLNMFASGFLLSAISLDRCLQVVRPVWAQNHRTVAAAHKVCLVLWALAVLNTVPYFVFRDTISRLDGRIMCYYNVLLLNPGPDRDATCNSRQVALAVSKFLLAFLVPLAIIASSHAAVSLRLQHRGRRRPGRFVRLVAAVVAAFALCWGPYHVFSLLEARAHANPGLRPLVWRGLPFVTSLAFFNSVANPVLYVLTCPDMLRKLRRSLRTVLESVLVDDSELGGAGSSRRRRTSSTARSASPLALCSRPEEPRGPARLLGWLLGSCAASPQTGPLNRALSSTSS
Assay: Human CRTH2 Receptor Binding Assay (whole cell, [3H]ramatroban competition)
Conditions: CHO-K1 cells expressing human CRTH2 and G-alpha16; 20 nM [3H]ramatroban; 1 hour, room temperature
Method in brief: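 CHO-K1 cells stably co-expressing human CRTH2 and G-alpha16, 1.5×10^5 per reaction, incubated 1 hour at room temperature with 20 nM [3H]ramatroban in PBS containing 10 mM MgCl2 and 0.06% BSA. Non-specific binding defined with 10 μM 15(R)-15-methyl PGD2. IC50 from 7 concentrations by 4-parameter logistic fit of specific binding inhibition.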

SMILES	IC50 [nM]
O=C(O)Cn1ncc2c1CCCC2NS(=O)(=O)c1cc(-c2ccccc2)cc(C(F)(F)F)c1 (centres unmarked) [Example 10-16a, [4-(5-Trifluoromethyl-biphenyl-3-sulfonylamino)-4,5,6,7-tetrahydro-indazol-1-yl]-acetic acid]	66.1
O=C(O)Cn1ncc2c1CCCC2NS(=O)(=O)c1ccc(-c2ccccc2C(F)(F)F)cc1 (centres unmarked) [Example 10-17a, [4-(2′-Trifluoromethyl-biphenyl-4-sulfonylamino)-4,5,6,7-tetrahydro-indazol-1-yl]-acetic acid]	262
Cc1cc(C)cc(-c2ccc(S(=O)(=O)NC3CCCc4c3cnn4CC(=O)O)cc2)c1 (centres unmarked) [Example 10-18a, [4-(3′,5′-Dimethyl-biphenyl-4-sulfonylamino)-4,5,6,7-tetrahydro-indazol-1-yl]-acetic acid]	188
O=C(O)Cn1ncc2c1CCCC2NS(=O)(=O)c1ccc(-c2cccc(O)c2)cc1 (centres unmarked) [Example 10-19a, [4-(3′-Hydroxy-biphenyl-4-sulfonylamino)-4,5,6,7-tetrahydro-indazol-1-yl]-acetic acid]	267
CCOc1cccc(-c2ccc(S(=O)(=O)NC3CCCc4c3cnn4CC(=O)O)cc2)c1 (centres unmarked) [Example 10-20a, [4-(3′-Ethoxy-biphenyl-4-sulfonylamino)-4,5,6,7-tetrahydro-indazol-1-yl]-acetic acid]	272
CC(C)Oc1cccc(-c2ccc(S(=O)(=O)NC3CCCc4c3cnn4CC(=O)O)cc2)c1 (centres unmarked) [Example 10-21a, [4-(3′-Isopropoxy-biphenyl-4-sulfonylamino)-4,5,6,7-tetrahydro-indazol-1-yl]-acetic acid]	120
CC(=O)c1cccc(-c2ccc(S(=O)(=O)NC3CCCc4c3cnn4CC(=O)O)cc2)c1 (centres unmarked) [Example 10-22a, [4-(3′-Acetyl-biphenyl-4-sulfonylamino)-4,5,6,7-tetrahydro-indazol-1-yl]-acetic acid]	152
O=C(O)Cn1ncc2c1CCCC2NS(=O)(=O)c1ccc(-c2cccc([N+](=O)[O-])c2)cc1 (centres unmarked) [Example 10-23a, [4-(3′-Nitro-biphenyl-4-sulfonylamino)-4,5,6,7-tetrahydro-indazol-1-yl]-acetic acid]	238
O=C(O)Cn1ncc2c1CCCC2NS(=O)(=O)c1ccc(-c2cc(C(F)(F)F)cc(C(F)(F)F)c2)cc1 (centres unmarked) [Example 10-24a, [4-(3′,5′-Bis-trifluoromethyl-biphenyl-4-sulfonylamino)-4,5,6,7-tetrahydro-indazol-1-yl]-acetic acid]	97.5
O=C(O)Cn1ncc2c1CCC[C@H]2NS(=O)(=O)c1ccc(-c2cccc(C(F)(F)F)c2)cc1 [Example 10-25a, [(R)-4-(3′-Trifluoromethyl-biphenyl-4-sulfonylamino)-4,5,6,7-tetrahydro-indazol-1-yl]-acetic acid]	13.1
C[Si](C)(C)c1cccc(-c2ccc(S(=O)(=O)N[C@@H]3CCCc4c3cnn4CC(=O)O)cc2)c1 [Example 10-26a, [(R)-4-(3′-Trimethylsilanyl-biphenyl-4-sulfonylamino)-4,5,6,7-tetrahydro-indazol-1-yl]-acetic acid]	2.1
CC(C)c1cccc(-c2ccc(S(=O)(=O)N[C@@H]3CCCc4c3cnn4CC(=O)O)cc2)c1 [Example 10-27a, [(R)-4-(3′-Isopropyl-biphenyl-4-sulfonylamino)-4,5,6,7-tetrahydro-indazol-1-yl]-acetic acid]	5.1
CS(=O)(=O)c1cccc(-c2ccc(S(=O)(=O)N[C@@H]3CCCc4c3cnn4CC(=O)O)cc2)c1 [Example 10-28a, [(R)-4-(3′-Methanesulfonyl-biphenyl-4-sulfonylamino)-4,5,6,7-tetrahydro-indazol-1-yl]-acetic acid]	6.6
C[S+]([O-])c1cccc(-c2ccc(S(=O)(=O)N[C@@H]3CCCc4c3cnn4CC(=O)O)cc2)c1 (stereo partly drawn) [Example 10-29a, [(R)-4-(3′-Methanesulfinyl-biphenyl-4-sulfonylamino)-4,5,6,7-tetrahydro-indazol-1-yl]-acetic acid]	27.5
O=C(O)CCn1ncc2c1CCC[C@H]2NS(=O)(=O)c1ccc(-c2cccc(C(F)(F)F)c2)cc1 [Example 10-31a, 3-[(R)-4-(3′-Trifluoromethyl-biphenyl-4-sulfonylamino)-4,5,6,7-tetrahydro-indazol-1-yl]-propionic acid]	5.6
CN([C@@H]1CCCc2c1cnn2CC(=O)O)S(=O)(=O)c1ccc(-c2cccc(C(F)(F)F)c2)cc1 [Example 11-1a, {(R)-4-[Methyl-(3′-trifluoromethyl-biphenyl-4-sulfonyl)-amino]-4,5,6,7-tetrahydro-indazol-1-yl}-acetic acid]	7.3
CN([C@@H]1CCCc2c1cnn2CCC(=O)O)S(=O)(=O)c1ccc(-c2cccc(C(F)(F)F)c2)cc1 [Example 11-2a, 3-{(R)-4-[Methyl-(3′-trifluoromethyl-biphenyl-4-sulfonyl)-amino]-4,5,6,7-tetrahydro-indazol-1-yl}-propionic acid]	80.7
CN([C@@H]1CCCc2c1cnn2CC(=O)O)S(=O)(=O)c1cc(-c2ccc(F)cc2)cc(C(F)(F)F)c1 [Example 12-1a, {(R)-4-[(4′-Fluoro-5-trifluoromethyl-biphenyl-3-sulfonyl)-methyl-amino]-4,5,6,7-tetrahydro-indazol-1-yl}-acetic acid]	130
CN([C@@H]1CCCc2c1cnn2CC(=O)O)S(=O)(=O)c1cc(C(F)(F)F)cc(S(=O)(=O)c2ccc(Cl)cc2)c1 [Example 13-1a, ((R)-4-{[3-(4-Chloro-benzenesulfonyl)-5-trifluoromethyl-benzenesulfonyl]-methylamino}-4,5,6,7-tetrahydro-indazol-1-yl)-acetic acid]	2.9
Cc1ccc(S(=O)(=O)c2cc(C(F)(F)F)cc(S(=O)(=O)N(C)[C@@H]3CCCc4c3cnn4CC(=O)O)c2)cc1 [Example 13-2a, ((R)-4-{Methyl-[3-(toluene-4-sulfonyl)-5-trifluoromethyl-benzenesulfonyl]-amino}-4,5,6,7-tetrahydro-indazol-1-yl)-acetic acid]	2.7
CN([C@@H]1CCCc2c1cnn2CCC(=O)O)S(=O)(=O)c1cc(C(F)(F)F)cc(S(=O)(=O)c2ccc(F)cc2)c1 [Example 13-3a, 3-((R)-4-{[3-(4-Fluoro-benzenesulfonyl)-5-trifluoromethyl-benzenesulfonyl]-methyl-amino}-4,5,6,7-tetrahydro-indazol-1-yl)-propionic acid]	4
CN([C@@H]1CCCc2c1cnn2CCC(=O)O)S(=O)(=O)c1cc(C(F)(F)F)cc(S(=O)(=O)c2ccc(Cl)cc2)c1 [Example 13-4a, 3-((R)-4-{[3-(4-Chloro-benzenesulfonyl)-5-trifluoromethyl-benzenesulfonyl]-methyl-amino}-4,5,6,7-tetrahydro-indazol-1-yl)-propionic acid]	2.5
COc1ccc(S(=O)(=O)c2cc(C(F)(F)F)cc(S(=O)(=O)N(C)[C@@H]3CCCc4c3cnn4CCC(=O)O)c2)cc1 [Example 13-5a, 3-((R)-4-{[3-(4-Methoxy-benzenesulfonyl)-5-trifluoromethyl-benzenesulfonyl]-methyl-amino}-4,5,6,7-tetrahydro-indazol-1-yl)-propionic acid]	5.8
Cc1ccc(S(=O)(=O)c2cc(C(F)(F)F)cc(S(=O)(=O)N(C)[C@@H]3CCCc4c3cnn4CCC(=O)O)c2)cc1 [Example 13-6a, 3-((R)-4-{Methyl-[3-(toluene-4-sulfonyl)-5-trifluoromethyl-benzenesulfonyl]-amino}-4,5,6,7-tetrahydro-indazol-1-yl)-propionic acid]	7.8
O=C(O)Cn1ncc2c1CCCC2NS(=O)(=O)c1cccc(NC(=O)c2ccccc2)c1 (centres unmarked) [Example 14-1a, [4-(3-Benzoylamino-benzenesulfonylamino)-4,5,6,7-tetrahydro-indazol-1-yl]-acetic acid]	356
O=C(O)Cn1ncc2c1CCCC2NS(=O)(=O)c1cccc(NS(=O)(=O)c2ccccc2)c1 (centres unmarked) [Example 15-1a, [4-(3-Benzenesulfonylamino-benzenesulfonylamino)-4,5,6,7-tetrahydro-indazol-1-yl]-acetic acid]	360
